According to patent US6896895B2, “Carotenoid esters, carotenoid-enriched feeds, and methods of pigmenting foods and foodstuffs” (DSM IP Assets B.V., priority 2000, dated 2005):

Experiments:
[1] = Carotenoid ester content and deposition rate in egg yolk of laying hens (HPLC); format: in vivo, laying hens (ISA Brown); set-up: Deposition Rate Value: unit not given here
In short: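 Hens were first depleted for at least 28 days on a low-carotenoid basal diet (<2 mg total xanthophylls/kg, also the control diet), then fed mash supplemented with the pigments ad libitum for three weeks. Pooled homogenised yolk was extracted with ethanol/n-hexane and analysed by HPLC, calibrated with all-E ethyl β-apo-8′-carotenoate. Response factors were adjusted by molecular weight, and Z-isomers were corrected by a factor of 1.4.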

[2] = tested on: egg yolk; assay: Egg yolk colour: reflectance colorimetry and Roche Yolk Colour Fan; format: in vivo, laying hens (ISA Brown); set-up: key to Chroma C*ab Value: CIE L*a*b* chroma C* value; key to Color Fan Value / Color Fan Value Value: visual score on Roche Yolk Colour Fan (RYCF, 1993 version); key to Color Fan Value, Pigmentation: − = off color; + = good color; details: laying hens
In short: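 ISA Brown laying hens, depleted at least 28 days on low-carotenoid basal diet (<2 mg xanthophylls/kg), fed pigment-supplemented mash ad libitum for three weeks. Pooled yolks of three to six eggs scored with Roche Yolk Colour Fan and measured by reflectance colorimetry (D65, 8°) as CIE L*a*b*, h*, C*; values average four yolk pools.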

[3] = egg yolk, average over doses, Table 7
[4] = egg yolk, average over doses, Table 9
[5] = egg yolk, trial H-25/99, 5.0 mg/kg feed
[6] = egg yolk, trial H-25/99, 5.0 mg/kg feed, Table 9

CC(C=CC=C(C)C=CC1=C(C)CCCC1(C)C)=CC=CC=C(C)C=CC=C(C)C(=O)OC(C)(C)C [compound (18), tert. butyl beta-apo-8′-carotenoate]
Deposition Rate Target Values % of Controls [1, 3]: 119% | Ethyl β-apo-8′-carotenoate Equivalents % of Controls [1, 3]: 106% | Deposition Rate % of Controls [1, 4]: 119% | Deposition Rate Target Values [1, 5]: 60.7% | Deposition Rate Target Values % of Controls [1, 5]: 119% | Ethyl β-apo-8′-carotenoate Equivalents [1, 5]: 16.6 mg/kg | Ethyl β-apo-8′-carotenoate Equivalents % of Controls [1, 5]: 106% | Deposition Rate % of Controls [1, 6]: 119% | Deposition Rate Value [1, 6]: 61 | concentration in the egg yolk ([1]; versus the control): in the range of the control | Color Fan Value % of Controls [2, 3]: 87% | Chroma C*ab % of Controls [2, 4]: 101% | Color Fan Value % of Controls [2, 4]: 87% | Color Hue h*ab % of Controls [2, 4]: 85% | Chroma C*ab % of Controls [2, 5]: 101% | Chroma C*ab Value [2, 5]: 52 | Color Fan Value [2, 5]: 7 | Color Fan Value % of Controls [2, 5]: 87% | Color Fan Value, Pigmentation [2, 5]: + | Color Hue h*ab % of Controls [2, 5]: 85% | Color Hue h*ab Value [2, 5]: 74 | Color Fan Value % of Controls [2, 6]: 87% | Color Fan Value Value [2, 6]: 7 | Color Fan Value, Pigmentation [2, 6]: + | quality in terms of deposition rate and color intensity (chroma C*a*b*) in the egg yolk ([2]; compared to the control): comparable quality
